Results published in patent US11529332B2 (priority 2017, dated 2022).
Like-named read-outs stand apart in the source and are kept apart here.

How the values were obtained:
[1] = tested on: MYXV; experiment: Lysis plaque analysis in RK13 infected with MYXV; format: cell-based, Myxoma virus; settings: 6d PI
Experimental: Lysis plaque analysis was carried out in RK13 infected with MYXV 6d PI. Lysis plaques area and number of lysis plaques were assessed directly on microscope pictures (FIG. 4).

[2] = tested on: RK13 cells
Experimental: (§1) RK13 cells for the toxicity study and RK13 cells at MOI 0.01 6 days PI are fixed and image acquisition and analysis are performed as previously described.

[3] = tested on: MYXV; experiment: MYXV-GFP infection rate in RK13 cells (high content microscopy); settings: for IC50: MYXV in RK13 cells; for Inhibition of MYXV infection rate (in words): RK13 cells
Experimental: RK13 (rabbit epitelial kidney) cells were used for MYXV infection assay.
Cells were grown in 200 μL Dulbecco's Modified Eagle's medium (DMEM) without phenol red (Sigma-Aldrich), 10% SVF, Pen-strep, 1× sodium pyruvate, 1× Glutamax.
RK13 cells at MOI 0.5 48 h post-infection (PI) are fixed with Formalin 10 min at room temperature. Wash with 200 μL PBS and 100 μL PBS/Hoechst 33342 (1/1000) per well. 96 well plates are kept at 4° C. in the dark until data acquisition. Image acquisition and analysis for high content quantification is performed on a Thermo Cellomics Arrayscan VTI microscope using a modified compartmental analysis algorithm.
as §1
On 48 h and 6d post-infection, data acquisition was done by high content microscopy to calculate infection level according to compound concentration.

[4] = read-out: IC50 (48 h PI), MOI 0.5, 48 h post-infection
[5] = read-out: IC50 (6 d PI), MOI 0.01, 6 days post-infection

## O=[N+]([O-])c1ccc(F)c(-c2c3nc(c4ccc([nH]4)c(-c4cc([N+](=O)[O-])ccc4F)c4ccc([nH]4)c(-c4cc([N+](=O)[O-])ccc4F)c4ccc2[nH]4)C=C3)c1 [FNO2Cor, 5,10,15-Tris(2-fluoro-5-nitrophenyl)corrole]
[1]; concentration 0.37 μM
  Area in cm^2 of lysis plaques: 8 cm^2
  Number of lysis plaques: 5
[1]; concentration 0.75 μM
  Area in cm^2 of lysis plaques: 3.4 cm^2
  Number of lysis plaques: 6
[1]; concentration 1.5 μM
  Number of lysis plaques: 1.3
[1]; concentration 3.1 μM
  Number of lysis plaques: 0
[2]
  CC50: 3740 nM
[3]; [4]
  IC50: 1330 nM
[3]; [5]
  IC50: 500 nM

## Fc1c(F)c(F)c(-c2c3nc(c4ccc([nH]4)c(-c4c(F)c(F)c(F)c(F)c4F)c4ccc([nH]4)c(-c4c(F)c(F)c(F)c(F)c4F)c4ccc2[nH]4)C=C3)c(F)c1F [TPFCor, 5,10,15-Tris(pentafluorophenyl)corrole]
[1]; concentration 0.37 μM
  Area in cm^2 of lysis plaques: 6 cm^2
  Number of lysis plaques: 6.7
[1]; concentration 0.75 μM
  Number of lysis plaques: 6
[1]; concentration 1.5 μM
  Number of lysis plaques: 3.3
[1]; concentration 3.1 μM
  Number of lysis plaques: 4
[2]
  CC50: 6680 nM
[3]
  Inhibition of MYXV infection rate (in words): better in vitro anti-MYXV effect than FNO2Cor
[3]; [4]
  IC50: 270 nM
[3]; [5]
  IC50: 120 nM

## O=[N+]([O-])c1ccc(-c2c3nc(c4ccc([nH]4)c(-c4ccc([N+](=O)[O-])cc4)c4ccc([nH]4)c(-c4ccc([N+](=O)[O-])cc4)c4ccc2[nH]4)C=C3)cc1 [TpNO2Cor, 5,10,15-Tris(4-nitrophenyl)corrole]
[1]; concentration 0.37 μM
  Area in cm^2 of lysis plaques: 9 cm^2
  Number of lysis plaques: 4
[1]; concentration 0.75 μM
  Area in cm^2 of lysis plaques: 3.4 cm^2
  Number of lysis plaques: 6.7
[1]; concentration 1.5 μM
  Number of lysis plaques: 2.7
[1]; concentration 3.1 μM
  Number of lysis plaques: 0
[2]
  CC50: 4360 nM
[3]
  Inhibition of MYXV infection rate (in words): better in vitro anti-MYXV effect than FNO2Cor
[3]; [4]
  IC50: 430 nM
[3]; [5]
  IC50: 200 nM
